According to patent US8877351B2, “Organometallic complex, and lighting apparatus, and electronic device using the organometallic complex” (Semiconductor Energy Laboratory Co., Ltd., priority 2008, dated 2014):

Experiment: solubility determination in organic solvents
Type: physicochemical
Source text: It is confirmed that Ir(dbq-tBuP)2(acac) can be dissolved in each of 2-ethoxyethanol, 1,4-dioxane, chloroform, and toluene.

solubility (in chloroform): ≥ 1200 µg/mL | solubility (in toluene): ≥ 1200 µg/mL | Solubility x (solvent: Chloroform): 1.2 ≦ x g/L | Solubility x (solvent: Ethanol): x < 0.6 g/L | Solubility x (solvent: Isopropyl alcohol): x < 0.6 g/L | Solubility x (solvent: Toluene): 1.2 ≦ x g/L
SMILES: CC(=O)C=C(C)[O][Ir]([c]1cc(C(C)(C)C)ccc1-c1cnc2c3ccccc3c3ccccc3c2n1)[c]1cc(C(C)(C)C)ccc1-c1cnc2c3ccccc3c3ccccc3c2n1 [Ir(dbq-tBuP)2(acac), (acetylacetonato)bis{2-(4-tert-butylphenyl)-dibenzo[f,h]quinoxalinato}iridium(III)]
